Laboratory results from patent US9725436B2, “Cytochrome P450 inhibitors and their method of use” (CORTENDO AB (PUBL), priority 2013, dated 2017).

How the values were obtained:
[1] = Pharmacokinetic study in the guinea pig, 10 mg/kg oral dosing; assay type: in vivo; design: DNAUC(0-inf): unit not given beside the values; conditions: for DNAUC(0-inf): dose-normalised AUC; for AUC(0-inf) / Cmax / half-life / AUC / MRT: in vivo; for AUC: read-out: AUC0_last; for MRT: read-out: MRT0_last
Experimental: Pharmacokinetic studies in the guinea pig were run using 1 mg/kg IV dosing (20% DMA, 40% TEG, 40% water) and 10 mg/kg oral dosing (2% Tween-80, 98% HPMC (1% water)).

recombinant CYP-11 = recombinant CYP-11 (Homo sapiens (Human), UniProt P15538); experiment: Cyp11 assay protocol (cortisol formation from 11-deoxycortisol, LC/MS); assay type: cell-based; conditions: AD293 cells over-expressing recombinant CYP-11
Sequence of recombinant CYP-11 (P15538 25-503): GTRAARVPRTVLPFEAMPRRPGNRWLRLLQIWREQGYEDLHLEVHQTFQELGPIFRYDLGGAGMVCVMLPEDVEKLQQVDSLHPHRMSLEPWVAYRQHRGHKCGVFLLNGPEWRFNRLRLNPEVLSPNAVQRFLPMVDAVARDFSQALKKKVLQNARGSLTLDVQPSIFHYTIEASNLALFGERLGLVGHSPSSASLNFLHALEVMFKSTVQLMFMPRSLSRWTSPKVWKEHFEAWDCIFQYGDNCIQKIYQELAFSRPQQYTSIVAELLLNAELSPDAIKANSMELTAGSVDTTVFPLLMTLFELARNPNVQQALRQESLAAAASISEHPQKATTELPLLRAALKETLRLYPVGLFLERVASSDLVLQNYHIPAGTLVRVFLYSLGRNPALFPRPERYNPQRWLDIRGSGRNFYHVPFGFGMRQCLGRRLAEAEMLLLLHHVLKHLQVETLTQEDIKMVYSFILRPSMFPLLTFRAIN
Experimental: (§1) Cyp11 assay protocol: AD293 cells that stably over-express recombinant CYP-11 were seeded in 96 well plates coated with poly D-lysine (15,000 cell per well) and incubated at 37° C. for 24 hours in Dulbecco's Modified Eagle Medium (DMEM) with Fetal Bovine Serum (FBS) that is stripped of hormones by charcoal treatment. The media is then removed, the cells are washed once with Phosphate buffer saline solution, and 50 μL Dulbecco's Modified Eagle Medium (DMEM) with Fetal Bovine Serum (FBS) that is stripped of hormones by charcoal treatment is added. Compounds of the disclosure are then added to the wells in eight concentration spanning 10 μM to 4.5 nM, and the plates are incubated for an additional 60 minutes at 37° C. 11-deoxycortisol is then added (2.0 μM) and the plates are incubated for an additional 12 hours at 37° C. After incubation, 50 uL of the supernatant (medium) is transferred into a fresh plate and 150 uL of an acetonitrile solution containing 200 ng/ml of Telmisartan is added.

recombinant CYP-17 = recombinant CYP-17 (Homo sapiens (Human), UniProt P05093); experiment: Cyp17 assay protocol (3H-acetic acid release from [21-3H] 17α-hydroxyl-Pregnenolone); assay type: cell-based; conditions: AD293 cells over-expressing recombinant CYP-17
Sequence of recombinant CYP-17 (P05093 whole entry, species assumed): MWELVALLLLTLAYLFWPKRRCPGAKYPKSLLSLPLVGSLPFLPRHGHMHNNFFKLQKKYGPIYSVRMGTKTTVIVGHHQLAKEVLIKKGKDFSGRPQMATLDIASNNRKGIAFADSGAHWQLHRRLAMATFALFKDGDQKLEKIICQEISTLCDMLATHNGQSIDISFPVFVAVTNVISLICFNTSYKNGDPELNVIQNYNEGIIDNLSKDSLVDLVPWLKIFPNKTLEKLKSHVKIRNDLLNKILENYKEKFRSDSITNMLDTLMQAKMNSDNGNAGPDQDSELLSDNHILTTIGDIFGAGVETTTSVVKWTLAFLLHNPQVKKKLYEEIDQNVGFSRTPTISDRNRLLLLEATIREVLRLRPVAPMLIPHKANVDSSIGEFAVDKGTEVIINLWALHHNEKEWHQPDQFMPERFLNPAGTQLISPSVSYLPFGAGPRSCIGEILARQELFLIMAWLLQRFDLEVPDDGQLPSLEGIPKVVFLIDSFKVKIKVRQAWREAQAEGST
Experimental: Cyp17 assay protocol: AD293 cells that stably over-express recombinant CYP-17 were seeded in 96 well plates coated with poly D-lysine (15,000 cell per well) and incubated at 37° C. for 24 hours in Dulbecco's Modified Eagle Medium (DMEM) with Fetal Bovine Serum (FBS) that is stripped of hormones by charcoal treatment. The media is then removed, the cells are washed once with Phosphate buffer saline solution, and 50 μL Dulbecco's Modified Eagle Medium (DMEM) with Fetal Bovine Serum (FBS) that is stripped of hormones by charcoal treatment is added. Compounds of the disclosure are then added to the wells in eight concentration spanning 10 μM to 4.5 nM, and the plates are incubated for an additional 60 minutes at 37° C. [21-^3H] 17α-hydroxyl-Pregnenolone is then added (50 nCi per well, 31.25 nM) and the plates are incubated for an additional 4 hours at 37° C. The media is then collected, 200 μL of chloroform is added, and the mixture is shaken for 1 hour. The aqueous layer is then separated and analyzed for the presence of ^3H-acetic acid using a Perkin Elmer Topcount NXT to determine IC50s of the compounds of the disclosure.

recombinant CYP-21 = recombinant CYP-21 (Homo sapiens (Human), UniProt P08686); experiment: Cyp21 assay protocol (11-deoxycortisol formation from 17α-OH Progesterone, LC/MS); assay type: cell-based; conditions: AD293 cells over-expressing recombinant CYP-21
Sequence of recombinant CYP-21 (P08686 whole entry, species assumed): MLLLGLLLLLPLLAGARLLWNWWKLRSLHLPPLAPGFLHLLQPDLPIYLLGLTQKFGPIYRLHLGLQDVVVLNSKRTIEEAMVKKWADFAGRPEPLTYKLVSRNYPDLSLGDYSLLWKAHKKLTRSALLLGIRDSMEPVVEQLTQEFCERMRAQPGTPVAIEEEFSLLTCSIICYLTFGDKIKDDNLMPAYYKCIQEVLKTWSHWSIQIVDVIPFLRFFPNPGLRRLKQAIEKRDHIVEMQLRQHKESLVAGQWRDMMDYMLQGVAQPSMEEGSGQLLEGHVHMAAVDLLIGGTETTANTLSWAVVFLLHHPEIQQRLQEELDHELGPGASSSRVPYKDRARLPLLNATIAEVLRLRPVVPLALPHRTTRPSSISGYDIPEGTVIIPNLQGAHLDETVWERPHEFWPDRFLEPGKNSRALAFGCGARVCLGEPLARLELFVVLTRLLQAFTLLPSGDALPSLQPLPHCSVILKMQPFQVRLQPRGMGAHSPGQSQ
Experimental: as §1, with “Cyp21” for “Cyp11”, “CYP-21” for “CYP-11”, “(10,000” for “(15,000”, “17α-OH Progesterone” for “11-deoxycortisol”, “(1.0” for “(2.0”, “45 minutes” for “12 hours”

| IC50 (recombinant CYP-11) [nM] | IC50 (recombinant CYP-17) [nM] | IC50 (recombinant CYP-21) [nM] | SMILES | other results |
| --- | --- | --- | --- | --- |
| – | – | – | CC(=O)N1CCN(c2ccc(/C=C/c3cc(F)cc(-c4ccncc4)c3)cc2)CC1 | AUCExtra [1]: 43.93%; DNAUC(0-inf) [1]: 823.1; AUC(0-inf) [1]: 14900 ng·h/mL; Cmax [1]: 1020 ng/mL; half-life [1]: 6 h; AUC [1]: 8230 ng·h/mL; MRT [1]: 5.56 h |
| 4 | 22 | – | N#Cc1cccc(C(=O)N2CCN(c3ccc(/C=C/c4cc(Cl)cc(Cn5ccnc5)c4)cc3)CC2)c1 [Example 18] | – |
| 11 | 17 | 585 | Clc1cc(/C=C/c2ccc(N3CCN(CC4CC4)CC3)cc2)cc(Cn2ccnc2)c1 [Example 19] | – |
| 27 | 41 | 360 | CCOC(=O)CNC(=O)N1CCN(c2ccc(/C=C/c3cc(Cl)cc(Cn4ccnc4)c3)cc2)CC1 [Example 20] | – |
| 19 | 48 | 1400 | O=C(C1CC1)N1CCN(c2ccc(/C=C/c3cc(Cl)cc(Cn4ccnc4)c3)cc2)CC1 [Example 22] | – |
| 7 | 25 | 285 | N#Cc1cccc(CN2CCN(c3ccc(/C=C/c4cc(Cl)cc(Cn5ccnc5)c4)cc3)CC2)c1 [Example 23] | – |
| – | 42 | 2600 | Fc1cc(/C=C/c2ccc(Br)cc2)cc(-c2ccncc2)c1 [Example 24] | – |
| 3700 | 11 | 850 | Fc1cc(/C=C/c2ccc(-c3ccncc3)cc2)cc(-c2ccncc2)c1 [Example 25] | – |
| 140 | 135 | – | CC(=O)N1CCN(c2ccc(/C=C/c3cc(Cl)cc(COc4cccnc4)c3)cc2)CC1 [Example 26] | – |
| 370 | 240 | 3300 | CC(=O)N1CCN(c2ccc(/C=C/c3cc(Cl)cc(C(O)(c4cccnc4)C(C)C)c3)cc2)CC1 (stereo not drawn) [Example 29] | – |
| – | 620 | – | CC(=O)N1CCN(c2ccc(/C=C/c3cc(Cl)cc(-c4cccnc4)c3)cc2)CC1 [Example 32] | – |
| 220 | 7 | 3300 | O=S(=O)(c1cccnc1)N1CCN(c2ccc(/C=C/c3cc(F)cc(-c4ccncc4)c3)cc2)CC1 [Example 33] | – |
| 1300 | 8 | 1010 | CCOC(=O)CNC(=O)N1CCN(c2ccc(/C=C/c3cc(F)cc(-c4ccncc4)c3)cc2)CC1 [Example 34] | – |
| 200 | 5 | 520 | CCS(=O)(=O)N1CCN(c2ccc(/C=C/c3cc(F)cc(-c4ccncc4)c3)cc2)CC1 [Example 36] | – |
| 54 | 5 | 770 | Fc1cc(/C=C/c2ccc(N3CCN(CC4CC4)CC3)cc2)cc(-c2ccncc2)c1 [Example 38] | – |
| 1500 | 5 | 316 | O=S(=O)(N1CCN(c2ccc(/C=C/c3cc(F)cc(-c4ccncc4)c3)cc2)CC1)C(F)(F)F [Example 39] | – |
| – | 3 | 1200 | O=S(=O)(C1CC1)N1CCN(c2ccc(CCc3cc(F)cc(-c4ccncc4)c3)cc2)CC1 [Example 41] | – |
| – | 4 | 1000 | CC(C)S(=O)(=O)N1CCN(c2ccc(CCc3cc(F)cc(-c4ccncc4)c3)cc2)CC1 [Example 42] | – |
| 330 | 2 | 1600 | CCS(=O)(=O)N1CCN(c2ccc(CCc3cc(F)cc(-c4ccncc4)c3)cc2)CC1 [Example 44] | – |
| 183 | 16.5 | 2800 | O=S(=O)(N1CCN(c2ccc(CCc3cc(F)cc(-c4ccncc4)c3)cc2)CC1)C(F)(F)F [Example 45] | – |
| 250 | 3.5 | 73 | CCOC(=O)CNC(=O)NC1CCN(c2ccc(/C=C/c3cc(Cl)cc(Cn4ccnc4)c3)cc2)CC1 [Example 47] | – |
| – | – | – | O=S(=O)(C1CC1)N1CCN(c2ccc(/C=C/c3cc(F)cc(-c4ccncc4)c3)cc2)CC1 [drawing 724] | DNAUC(0-inf) [1]: 160; Cmax [1]: 172 ng/mL; AUC [1]: 1600 ng·h/mL; MRT [1]: 7 h |
| – | – | – | CCS(=O)(=O)N1CCN(c2ccc(/C=C/c3cc(F)cc(-c4ccncc4)c3)cc2)CC1 [drawing 725] | AUCExtra [1]: 18.25%; DNAUC(0-inf) [1]: 330.1; AUC(0-inf) [1]: 4190 ng·h/mL; Cmax [1]: 540 ng/mL; half-life [1]: 4.8 h; AUC [1]: 3300 ng·h/mL; MRT [1]: 5.54 h |
| – | – | – | O=S(=O)(N1CCN(c2ccc(/C=C/c3cc(F)cc(-c4ccncc4)c3)cc2)CC1)C(F)(F)F [drawing 726] | AUCExtra [1]: 25.87%; DNAUC(0-inf) [1]: 164.6; AUC(0-inf) [1]: 2450 ng·h/mL; Cmax [1]: 271 ng/mL; half-life [1]: 5.3 h; AUC [1]: 1650 ng·h/mL; MRT [1]: 5.01 h |

| SMILES | IC50 (recombinant CYP-11) [nM] | IC50 (recombinant CYP-17) [nM] | IC50 (recombinant CYP-21) [nM] | other results |
| --- | --- | --- | --- | --- |
| O=S(=O)(c1cccnc1)N1CCN(c2ccc(/C=C/c3cc(Cl)cc(Cn4ccnc4)c3)cc2)CC1 [Example 21] | 4 | 17 | 1380 | – |
| CC(=O)N1CCN(c2ccc(/C=C/c3cc(F)cc(-c4cccnc4)c3)cc2)CC1 [Example 27] | – | 610 | – | – |
| CC(=O)N1CCN(c2ccc(/C=C/c3cc(Cl)cc(Cc4cccnc4)c3)cc2)CC1 [Example 28] | 180 | 35 | – | – |
| CC(=O)N1CCN(c2ccc(/C=C/c3cc(Cl)cc(C(=C(C)C)c4cccnc4)c3)cc2)CC1 [Example 30] | 1800 | 210 | 2400 | – |
| CC(=O)N1CCN(c2ccc(/C=C/c3cc(Cl)cc(-c4ccncc4)c3)cc2)CC1 [Example 31] | – | 5 | 1100 | – |
| O=S(=O)(C1CC1)N1CCN(c2ccc(/C=C/c3cc(F)cc(-c4ccncc4)c3)cc2)CC1 [Example 35] | 140 | 5 | 393 | – |
| Fc1cc(CCc2ccc(-c3ccncc3)cc2)cc(-c2ccncc2)c1 [Example 37] | – | 190 | 490 | – |
| CC(C)S(=O)(=O)N1CCN(c2ccc(/C=C/c3cc(F)cc(-c4ccncc4)c3)cc2)CC1 [Example 40] | – | 1 | 190 | – |
| CCOC(=O)CNC(=O)N1CCN(c2ccc(CCc3cc(F)cc(-c4ccncc4)c3)cc2)CC1 [Example 43] | 160 | 7 | – | – |
| CC(C)=C(c1cccnc1)c1cc(Cl)cc(/C=C/c2ccc(-c3ccncc3)cc2)c1 [Example 46] | – | 300 | – | – |
